Values belong to the compound of their own block, whether it stands above or below them. Active and inactive are the calls of the source. The calls are words filed in the database; no cut-off is given here.
Key:
[1] = system: A2780; assay: Induction of apoptosis in human A2780 cells assessed as appearance of Mcl1 protein level after 24 hrs; type: functional, cell-based
[2] = system: SF-268; assay: Induction of cell cycle arrest in p53 deficient human SF268 cells assessed as accumulation at subG1 phase at 0.1 uM after 24 hrs FACS analysis; type: functional
[3] = system: K562; assay: Induction of cell cycle arrest in p53 deficient human K562 cells assessed as accumulation at subG1 phase at 0.1 uM after 24hrs by FACS analysis; type: functional
[4] = system: HeLa; assay: Induction of cell cycle arrest in p53 deficient human HeLa cells assessed as assessed as accumulation at subG1 phase at 0.1 uM after 24hrs by FACS analysis; type: functional
[5] = system: SW480; assay: Induction of cell cycle arrest in p53 deficient human SW480 cells assessed as accumulation at subG1 phase at 0.1 uM after 24hrs by FACS analysis; type: functional
[6] = system: COLO 205; assay: Induction of cell cycle arrest in p53 deficient human COLO205 cells assessed as accumulation at subG1 phase at 0.1 uM after 24hrs by FACS analysis; type: functional
[7] = Induction of cell cycle arrest in p53 deficient human HCT116-E6 cells assessed as accumulation at subG1 phase at 0.1 uM after 24hrs by FACS analysis; type: functional
[8] = system: Jurkat; assay: Induction of cell cycle arrest in p53 deficient human Jurkat cells assessed as accumulation at subG1 phase at 0.1 uM after 24hrs by FACS analysis; type: functional
[9] = Induction of cell cycle arrest in p53 deficient human A2780/E6 cells as accumulation at subG1 phase at 0.1 uM after 24hrs by FACS analysis; type: functional
[10] = system: OVCAR-8; assay: Induction of cell cycle arrest in p53 deficient human OVCAR8 cells assessed as accumulation at subG1 phase at 0.1 uM after 24hrs by FACS analysis; type: functional
[11] = system: MCF7; assay: Induction of cell cycle arrest in human MCF7 cells expressing p53 gene assessed as accumulation at subG1 phase at 0.1 uM after 24hrs by FACS analysis; type: functional
[12] = system: HCT-116; assay: Induction of cell cycle arrest in human HCT116 cells expressing p53 gene assessed as accumulation at subG1 phase at 0.1 uM after 24hrs by FACS analysis; type: functional
[13] = system: HCT-15; assay: Induction of cell cycle arrest in human HCT15 cells expressing p53 gene assessed as accumulation at subG1 phase at 0.1 uM after 24hrs by FACS analysis; type: functional
[14] = system: SF-539; assay: Induction of cell cycle arrest in human SF539 cells expressing p53 gene assessed as accumulation at subG1 phase at 0.1 uM after 24hrs by FACS analysis; type: functional
[15] = system: U2OS; assay: Induction of cell cycle arrest in human U2OS cells expressing p53 gene assessed as accumulation at subG1 phase at 0.1 uM after 24hrs by FACS analysis; type: functional
[16] = system: A2780; assay: Induction of cell cycle arrest in human A2780 cells expressing p53 gene assessed as accumulation at subG1 phase at 0.1 uM after 24hrs by FACS analysis; type: functional
[17] = system: PC-3; assay: Induction of cell cycle arrest in human PC3 cells expressing p53 gene assessed as accumulation at subG1 phase at 0.1 uM after 24hrs by FACS analysis; type: functional
[18] = system: NHDF; assay: Induction of cell cycle arrest in NHDF expressing p53 gene assessed as accumulation at subG1 phase at 0.1 uM after 24hrs by FACS analysis; type: cell-based; conditions: human
[19] = system: SF-268; assay: Antiproliferative activity against p53 deficient human SF268 cells after 72 hrs; type: functional, cell-based; conditions: SF-268, 72 h
[20] = system: K562; assay: Antiproliferative activity against p53 deficient human K562 cells after 72 hrs; type: functional, cell-based; conditions: K562, 72 h
[21] = system: HeLa; assay: Antiproliferative activity against p53 deficient human HeLa cells after 72 hrs; type: functional, cell-based
[22] = system: SW480; assay: Antiproliferative activity against p53 deficient human SW480 cells after 72 hrs by proliferative assay; type: functional, cell-based; conditions: SW480, 72 h
[23] = system: COLO 205; assay: Antiproliferative activity against p53 deficient human COLO205 cells after 72 hrs; type: functional, cell-based; conditions: COLO 205, 72 h
[24] = Antiproliferative activity against p53 deficient human HCT116/E6 cells after 72 hrs by proliferative assay; type: functional, cell-based; conditions: HCT116-E6, 72 h
[25] = system: Jurkat; assay: Antiproliferative activity against p53 deficient human Jurkat cells after 72 hrs by proliferative assay; type: functional, cell-based
[26] = Antiproliferative activity against p53 deficient human A2780/E6 cells after 72 hrs by proliferative assay; type: functional, cell-based; conditions: A2780/E6, 72 h
[27] = system: OVCAR-8; assay: Antiproliferative activity against p53 deficient human OVCAR8 cells after 72 hrs by proliferative assay; type: functional, cell-based; conditions: OVCAR-8, 72 h
[28] = system: MCF7; assay: Antiproliferative activity against human MCF7 cells expressing p53 gene after 72 hrs by proliferative assay; type: functional, cell-based; conditions: MCF7, 72 h
[29] = system: HCT-116; assay: Antiproliferative activity against human HCT116 cells expressing p53 gene after 72 hrs by proliferative assay; type: functional, cell-based; conditions: HCT-116, 72 h
[30] = system: HCT-15; assay: Antiproliferative activity against human HCT15 cells expressing p53 gene after 72 hrs by proliferative assay; type: functional, cell-based; conditions: HCT-15, 72 h
[31] = system: SF-539; assay: Antiproliferative activity against human SF539 cells expressing p53 gene after 72 hrs by proliferative assay; type: functional, cell-based; conditions: SF-539, 72 h
[32] = system: U2OS; assay: Antiproliferative activity against human U2OS cells expressing p53 gene after 72 hrs by proliferative assay; type: functional, cell-based
[33] = system: A2780; assay: Antiproliferative activity against human A2780 cells expressing p53 gene after 72 hrs by proliferative assay; type: functional, cell-based; conditions: A2780, 72 h
[34] = system: PC-3; assay: Antiproliferative activity against human PC3 cells expressing p53 gene after 72 hrs by proliferative assay; type: functional, cell-based; conditions: PC-3, 72 h
[35] = system: NHDF; assay: Antiproliferative activity against NHDF expressing p53 gene after 72 hrs by proliferative assay; type: cell-based; conditions: Homo sapiens

Compound: CN1CC[C@H](c2c(O)cc(O)c3c(=O)cc(-c4ccccc4Cl)oc23)[C@H](O)C1
inhibition [1]: Active

Activity [18]: < 3%
IC50 [20]: 746 nM
IC50 [21]: > 10 µM
IC50 [22]: 13.6 nM
IC50 [23]: 51.4 nM
IC50 [25]: 45.3 nM
IC50 [27]: 2.6 nM
IC50 [28]: 80.3 nM
IC50 [29]: 9.7 nM
IC50 [30]: 9.9 nM
IC50 [32]: 90.7 nM
IC50 [33]: 16.6 nM
IC50 [34]: 2.6 nM
Compound: Nc1ccn([C@@H]2O[C@H](CO)[C@@H](O)C2(F)F)c(=O)n1 [GEMCITABINE]
Activity [2]: <3%
Activity [3]: <3%
Activity [4]: <3%
Activity [5]: <3%
Activity [6]: <3%
Activity [7]: <3%
Activity [8]: >20%
Activity [9]: <3%
Activity [10]: <3%
Activity [11]: <3%
Activity [12]: <3%
Activity [13]: 3%
Activity [14]: <3%
Activity [15]: <3%
Activity [16]: <3%
Activity [17]: <3%
IC50 [19]: 10.3 nM
IC50 [24]: 896 nM
IC50 [26]: 2.6 nM
IC50 [31]: 19.8 nM
IC50 [35]: 22.1 nM

Reference: ChEMBL document CHEMBL1221210, “A Cdc7 kinase inhibitor restricts initiation of DNA replication and has antitumor activity” (Nat Chem Biol, 2008)
